The results in this text go back to publication PMC5690597, “Suppression and resolution of autoimmune arthritis by rhesus θ-defensin-1, an immunomodulatory macrocyclic peptide” (PLoS ONE, 2017).

Bridge positions count the residues as written; N and C are the ends. Peptide text beside a SMILES is read from it.

One data set concerns FLS from PIA rats. The data set is described as follows: FLS invasion assay (Matrigel-coated transwell). It counts as cell-based. Particulars: RTD-1 0.1 μg/ml; 24 h; 7 different rat DA FLS cell lines, mean. How it is done:
Fibroblast-like synoviocytes (FLS) were isolated by enzymatic digestion of the synovial tissue from DA rats with PIA as previously described. Cells were washed and suspended in DMEM supplemented with 10% fetal bovine serum (Gibco, Grand Island, NY), 30 mg/ml L-glutamine (Sigma), 250 μg/ml amphotericin B (Sigma), and […] gentamicin (Gibco). After overnight culture, non-adherent cells were removed and adherent cells were cultured to approximately 70–90% confluence and passaged following detachment with 0.25% trypsin-EDTA for 3 min at 37°C. All experiments were performed with FLS after at least four passages.
FLS invasiveness was assayed in vitro using Matrigel-coated inserts in a transwell system (Becton, Dickinson and Company, Franklin Lakes, NJ) as previously described. Briefly, DA rat FLS (70–80% confluent) isolated as described above were suspended at 2.0 × 10^4 cells/well in serum-free DMEM. Cells were placed in the upper compartment of the Matrigel-coated inserts to which RTD-1 was added to final concentrations of 0.1, 1, or 10 μg/ml. The lower compartment contained complete medium with 10% FBS and plates were incubated at 37°C. […] The opposite side of the insert was stained with Crystal Violet (Sigma) and the total number of invading cells was counted at 100X magnification. […]

The test system of another data set is FLS. Conditions: RTD-1 0–30 μg/ml; all samples; LDH release.

In the case of `CC[C@H](C)[C@@H]1NC(=O)[C@@H]2CSSC[C@H](NC(=O)[C@H](CCCNC(=N)N)NC(=O)[C@@H]3CSSC[C@H](NC1=O)C(=O)N[C@@H]([C@@H](C)O)C(=O)N[C@@H](CCCNC(=N)N)C(=O)NCC(=O)N[C@@H](Cc1ccccc1)C(=O)N3)C(=O)N[C@@H](CC(C)C)C(=O)N[C@H]1CSSC[C@H](NC(=O)[C@H](C(C)C)NC(=O)CNC(=O)[C@H](CCCNC(=N)N)NC(=O)[C@H](CCCNC(=N)N)NC1=O)C(=O)N[C@@H](CCCNC(=N)N)C(=O)N2` [RTD-1, rhesus θ-defensin 1] (cyclo(GFCRCLCRRGVCRCICTR); disulfide 3-16, 5-14, 7-12), the “inhibition of FLS invasion” value with FLS from PIA rats is listed as 50%. Besides, the “cell viability in proliferation assay” value in the data set on FLS is on record as not below 98%.
